Assay results published in patent US4659734A, “Olinecarboxylic acid derivatives” (Nippon Shinyaku Co., Ltd., priority 1983, dated 1987).
In brackets after ≈: the same amount, converted by molar mass.

What was measured:
[1] = tested on: Alcaligenes faecalis ATCC 8750; assay: Minimum growth inhibiting concentration, Japan Chemotherapeutic Society method; format: cell-based; conditions: ATCC8750; Alcaligenes faecalis ATCC 8750, Gram -; read-out: Minimum Growth Inhibiting Concn
Experimental: (§1) The Antibacterial activity of the compounds of Examples 14, 13, 22b, 21 and 15 was determined in accordance with the method of Japan Chemotherapeutic Society (cf. Nippon Kagaku Ryoho Gakkai Shi, volume 29, number 1, pages 76 to 79, 1981) and the results are reported in Table 1, which follows.

[2] = tested on: Escherichia coli NIHJ JC-2; assay: as above; format: cell-based; conditions: NIHJJC2; Escherichia coli NIHJ JC-2, Gram -; read-out: Minimum Growth Inhibiting Concn
Experimental: as §1

[3] = tested on: Klebsiella pneumoniae K-1966; assay: as above; format: cell-based; conditions: K1966; Klebsiella pneumoniae K-1966, Gram -; read-out: Minimum Growth Inhibiting Concn
Experimental: as §1

[4] = tested on: Listeria monocytogenes RIMD 1205020; assay: as above; format: cell-based; conditions: RIMD1205020; Listeria monocytogenes RIMD 1205020, Gram +; read-out: Minimum Growth Inhibiting Concn
Experimental: as §1

Proteus mirabilis 181 = assay: as above; format: cell-based; conditions: Proteus mirabilis 181, Gram -; read-out: Minimum Growth Inhibiting Concn
Experimental: as §1

Proteus vulgaris DX-19 = assay: as above; format: cell-based; conditions: DX19; Proteus vulgaris DX-19, Gram -; read-out: Minimum Growth Inhibiting Concn
Experimental: as §1

[5] = tested on: Pseudomonas aeruginosa E-2; assay: as above; format: cell-based; conditions: E2; Pseudomonas aeruginosa E-2, Gram -; read-out: Minimum Growth Inhibiting Concn
Experimental: as §1

[6] = tested on: Pseudomonas aeruginosa E-2; assay: Ascending urinary tract infection; format: in vivo, ICR female mice
Experimental: ICR Female mice (body weight 20±1 grams) of SPE strain were used in the experiments. The mice were not given any water for seventeen hours, then compulsorily urinated, anesthesized by the administration of 60 mg/kg of pentobarbital into the abdominal cavity, then 1.5×10^5 of Pseudomonas aeruginosa E-2 strain were impregnated into the bladder via the urinary tract, and the external urinary meatus was stopped for four hours by a pin clip, whereupon the mice were infected in the ascending urinary tract.
The compound of Example 22b was given once orally, 4 hours after infection, then twice a day, and the administration was continued for three days. On the fourth day, the kidney was isolated, homogenized in a physiological saline solution, and the number of bacteria was calculated on suitable medium such as, for example, Drigalski medium. If the number of bacteria per one gram of kidney was less than […], then the compound was judged as "effective".

Cc1csc2c(C(=O)O)c(=O)c3cc(F)c(N4CCN(C)CC4)cc3n12 [Example 22b, 7-fluoro-1-methyl-8-(4-methyl-1-piperazinyl)-5-oxo-5H-thiazolo(3,2-a)-quinoline-4-carboxylic acid]
MIC [1]: 0.78 µg/mL (≈ 2.08 µM)
MIC [2]: 0.025 µg/mL (≈ 0.0666 µM)
MIC [3]: 0.05 µg/mL (≈ 0.133 µM)
MIC [4]: 0.2 µg/mL (≈ 0.533 µM)
MIC (Proteus mirabilis 181): 0.2 µg/mL (≈ 0.533 µM)
MIC (Proteus vulgaris DX-19): 0.1 µg/mL (≈ 0.266 µM)
MIC [5]: 0.39 µg/mL (≈ 1.04 µM)
Number Of Mice Where Compound Was Effective/Total Mice Tested ([6]; 3.13 mg/kg oral): 1/7
Number Of Mice Where Compound Was Effective/Total Mice Tested ([6]; 6.25 mg/kg oral): 4/7
Number Of Mice Where Compound Was Effective/Total Mice Tested ([6]; 12.5 mg/kg oral): 4/7
Number Of Mice Where Compound Was Effective/Total Mice Tested ([6]; 25 mg/kg oral): 6/7
Number Of Mice Where Compound Was Effective/Total Mice Tested ([6]; 50 mg/kg oral): 7/7
Number Of Mice Where Compound Was Effective/Total Mice Tested ([6]; 100 mg/kg oral, 4 h after infection then twice a day, three days): 7/7
ED50 ([6]; Pseudomonas aeruginosa, E2, in Mus musculus, 72 h, ascending urinary tract infection, oral, three days, read-out: 50% Effective Dose): 8 mg/kg
